Test results: PMC11973282, “RAS70 peptide targets multiforme glioblastoma by binding to the plasma membrane heat shock protein HSP70” (Frontiers in Oncology, 2025)
Where a SMILES comes first, the peptide text is derived from it. [ ]: non-standard residue; d: D form. βAla = NCCC(=O)O

Tests used:
[1] = test system: C6, GL261, and T98G cells; experiment: MTT test, overall statement for all cell lines studied; details: fluorescently labeled peptides, 7.5, 75, 750 µg/mL, 24, 48 and 72 hours
Procedure: 3-(4,5-dimethylthiazol-2-yl)-2,5-diphenyltetrazolium bromide (MTT) assay was performed to evaluate the cytotoxic effect of TKD-sCy5, RAS70-sCy5, and NGL-RGD-sCy5 peptides. The C6, GL261, and T98G cells were seeded in 96-well plates (Thermo Fisher Scientific, Waltham, USA) at concentration of 5*10^3 cells in 100 µL per well, plates were incubated at 37°C in 5% CO2. After 24 hours, peptides were added to the culture medium for final concentration of 7.5, 75, and 750 μg/mL; plates were incubated for 24, 48 and 72 hours. […] At the end of the incubation period, 1 mg/mL MTT solution was added for 4 hours and dissolved with DMSO. The absorbance was measured at 570 nm using Varioskan LUX Multimode Microplate Reader (Thermo Fisher Scientific, Waltham, USA).
Subsequently, we analyzed the cytotoxic effect of the peptides (RAS70, TKD, NGL, NGL-RGD) using the MTT test at various peptides concentrations (7.5, 75, 750 µg/mL) and co-incubation times of 24, 48 and 72 hours.

[2] = test system: human U87 glioblastoma cells; experiment: Flow cytometry of FITC-labeled peptide internalization, 24 h (also with antibody pre-treatment); format: cell-based
Procedure: (§1) The binding of the TKD-sCy5, RAS70-sCy5, and NGL-RGD-sCy5 peptides were analyzed using a CytoFLEX flow cytometer (Beckman Coulter, USA). A single cell suspension of C6, GL261, T98G, U87, U251, ANI, IBD, TMS (0.15×10^6 cells in mL^-1) were incubated for 30 minutes on ice in the dark with peptides in concentration of 75 μg/mL, and then washed with cold PBS solution. Cells without peptides were used as controls. To evaluate incorporation of the fluorescently-labeled peptides for longer period of co-incubation of 24 h cells (C6, GL261, U87, U251) were treated with FITC-labeled peptides, then washed with PBS and assessed on a CytoFLEX flow cytometer (Beckman Coulter, USA). Following FACS analysis cell pellet was further evaluated employing confocal microscopy Leica TCS SP8 (Leica Microsystems, Germany).
(§2) The incorporation of peptides over longer periods of co-incubation with brain tumor cells was additionally analyzed using a Cytomics FC500 flow cytometer (BeckmanCoulter, USA). Tumor cells (C6, GL261, U87, U251) were incubated with peptides (concentration 50 μg/mL) for 24 hours, washed with PBS. Internalization of FITC-labeled peptides was assessed by determining the mean fluorescence intensity (MFI). According to the study data ( Figure 6A ), it was shown that TKD peptide accumulated in all cell lines – 2120 ± 152 (C6), 2099 ± 107 (GL261), 2145 ± 189 (U87), 2373 ± 201 (U251) compared to the control scramble peptide (NGL) – 378 ± 48 (C6), 344 ± 57 (GL261), 301 ± 66 (U87), 313 ± 56 (U251) (P<0.001). […] Following FACS analysis the cell pellet was collected and evaluated for peptides cell uptake employing confocal microscopy ( Figure 6B ). The obtained microscopy data confirmed higher accumulation of RAS70 peptide in studied cell lines as compared to TKD or scramble peptides.
(§3) Figure 6 Evaluation of the mHsp70-targeting peptides internalization by glioma cells. (A) Flow cytometric evaluation of FITC-labeled peptide accumulation in tumor cell lines (rat glioma C6, mouse glioma GL261, human glioblastoma U87 and U251) after co-incubation for 24 hours. […] (B) Confocal microscopy assessment of FITC-labeled peptide accumulation in tumor cell lines (rat glioma C6, mouse glioma GL261, human glioblastoma U87 and U251) after co-incubation for 24 hours. […] (C) Analysis of the peptides uptake by human U87 glioblastoma cells following co-incubation for 24 hours.
To evaluate the mHsp70-mediated uptake of the peptides prior to co-incubation with either TKD or RAS70 peptides cells were pre-treated with anti-Hsp70 antibodies (SPA-810, SPA-815) that are known to target the membrane-bound chaperone on cancer cells ([37]). […] The tripeptide RGD (Arg-Gly-Asp) motif is known to bind to integrins, including αvβ3 and αvβ5 expressed on brain tumor cells and tumor endothelial cells ([38], [39]). […] As expected, we observed the decrease of NGL-RGD and RAS70 internalization by tumor cells but not of TKD or NGL peptides ( Figure 6C ).

[3] = test system: C6 cells (lower chamber; HUVEC and astrocytes barrier)
Procedure: (§4) Then, a peptide labeled with a fluorescent label was introduced into the upper chamber and co-incubation was carried out for 12, 24 and 36 hours. At the end of the incubation, the tumor cells were washed with cold phosphate-buffered saline (PBS) and fixed with a 4% solution of paraformaldehyde in PBS. Nuclei were stained with 4’,6-diamidino-2-phenylindole (DAPI). Fluorescent images were obtained using a Leica TCS SP8 confocal microscope (Leica, Germany). To avoid possible cross-interference of different fluorochromes, images for DAPI and FITC were obtained using a sequential sample scanning method. Fluorescently labeled cells were counted in the lower chamber. To estimate the mHsp70-mediated uptake of chaperone-targeted peptides tumor cells prior to incubation were pre-treated with anti-Hsp70 monoclonal antibodies SPA-810 (1:250, Stressgen) and SPA-815 (1:250 Stressgen). To exclude integrin (αvβ3, αvβ5)-mediated penetration of RAS70 tumor cells prior to incubation with peptides were pre-treated with anti- αvβ3 (1:200 clone LM609, ZMS1030, Sigma-Aldrich, USA), -αvβ5 (1:200 clone P1F6, MAB1961Z, Sigma-Aldrich, USA) monoclonal antibodies.
(§5) Then, a peptide labeled with a fluorescent dye (FITC) was introduced into the upper chamber and co-incubation was carried out for 12, 24 and 36 hours. At the end of the incubation, the tumor cells were washed with cold phosphate-buffered saline (PBS) and fixed with a 4% solution of paraformaldehyde in PBS. Nuclei were stained with 4’,6-diamidino-2-phenylindole (DAPI).
(§6) Data from 3 independent experiments are presented as M ± SE. […] Data from 3 independent experiments are presented as M ± SE. ** p < 0.01 for testing mean expression levels.

[4] = test system: GL261 cells (lower chamber; HUVEC and astrocytes barrier)
Procedure: as §4, §5, §6

[5] = test system: C6 (rat glioma) cells; experiment: Flow cytometry of FITC-labeled peptide internalization, 24 h; format: cell-based; details: 50 μg/mL, M ± SE, 3 independent experiments
Procedure: as §1, §2, §3

[6] = test system: human glioblastoma U251 cells; experiment: as above; format: cell-based; details: 50 μg/mL, M ± SE, 3 independent experiments
Procedure: as §1, §2, §3

[7] = test system: GL261 (mouse glioma) cells; experiment: as above; format: cell-based; details: 50 μg/mL, M ± SE, 3 independent experiments
Procedure: as §1, §2, §3

[8] = test system: U251 cells (lower chamber; HUVEC and astrocytes barrier)
Procedure: as §4, §5, §6

[9] = test system: U87 cells (lower chamber; HUVEC and astrocytes barrier); experiment: Transwell BBB model, peptide passage and accumulation in tumor cells (also with antibody pre-treatment); format: in vitro ADME, human
From the text: Fluorescently labeled cells were counted in the lower chamber.
Next, we assessed the mHsp70- and integrin (αvβ3, αvβ5)-mediated penetration of the TKD and RAS70 via the BBB ( Figure 9B ). […] When anti-αvβ3 and anti-αvβ5 mAbs were employed, we detected the decrease of NGL-RGD and RAS70 penetration via the BBB but not the NGL and TKD peptides.

| fluorescently labeled tumor cells in the lower chamber [3] | fluorescently labeled tumor cells in the lower chamber [4] | fluorescently labeled tumor cells in the lower chamber [8] | fluorescently labeled tumor cells in the lower chamber ([9]; transwell BBB model: HUVEC (5×10^5) and astrocytes (5×10^5) in upper chamber, U87 (1×10^4) in lower chamber, FITC-labeled peptide, 36 hours, confocal microscopy count, M ± SE, 3 independent experiments) | penetration via the BBB after combined anti-αvβ3, anti-αvβ5 and anti-Hsp70 mAbs ([9]; transwell, U87 cells, combined antibody treatment) | Molecule | cytotoxic effect (MTT test) [1] | peptide internalization after pre-treatment with anti-αvβ3 and -αvβ5 antibodies ([2]; U87, 24 hours, cells pre-treated with anti-αvβ3 (LM609) and anti-αvβ5 (P1F6) mAbs (1:200)) | peptide uptake after pre-treatment with both anti-Hsp70 and anti-αvβ3/-αvβ5 mAbs ([2]; U87, 24 hours, combination of antibodies) | mean fluorescence intensity (MFI), internalization of FITC-labeled peptide [5] | mean fluorescence intensity (MFI), internalization of FITC-labeled peptide [6] | mean fluorescence intensity (MFI), internalization of FITC-labeled peptide [7] | mean fluorescence intensity (MFI), internalization of FITC-labeled peptide ([2]; U87, 50 μg/mL, 24 hours, flow cytometry, M ± SE, 3 independent experiments) |
| --- | --- | --- | --- | --- | --- | --- | --- | --- | --- | --- | --- | --- |
|  |  |  |  |  | CC(C)C[C@H](NC(=O)CNC(=O)[C@@H](N)CC(N)=O)C(=O)N[C@H](C(=O)N[C@@H](CC(C)C)C(=O)N[C@@H](CCCCN)C(=O)N[C@@H](CC(N)=O)C(=O)N[C@@H](CC(=O)O)C(=O)N[C@@H](Cc1ccccc1)C(=O)N[C@@H](CO)C(=O)N[C@@H](CCCNC(=N)N)C(=O)N[C@@H](CC(C)C)C(=O)N[C@@H](CCC(=O)O)C(=O)NCC(=O)NCCC(=O)N[C@@H](CCCNC(=N)N)C(=O)NCC(=O)N[C@@H](CC(=O)O)C(=O)O)[C@@H](C)O [NGL-RGD] (H-NGLTLKNDFSRLEG[βAla]RGD-OH) | did not reveal the toxic effect | decrease | significant abrogation |  |  |  |  |
| 211 ± 29 cells | 188 ± 47 cells | 221 ± 38 cells | 211 ± 41 cells | excluding | NGLTLKNDFSRLEG [control scramble peptide] |  |  |  | 378 ± 48 | 313 ± 56 | 344 ± 57 | 301 ± 66 |
